Target: recombinant GST-tagged MDM2 / p53 peptide (Homo sapiens, UniProt Q00987)
Experiment: HTRF assay of inhibition of the p53-MDM2 interaction
Assay type: binding
Details: GST-MDM2 and biotinylated p53 peptide, 37° C. 1 h
Protocol: The ability of the compounds to inhibit the interaction between p53 and MDM2 proteins was measured by an HTRF (homogeneous time-resolved fluorescence) assay in which recombinant GST-tagged MDM2 binds to a peptide that resembles the MDM2-interacting region of p53 (Lane et al.). Binding of GST-MDM2 protein and p53-peptide (biotinylated on its N-terminal end) is registered by the FRET (fluorescence resonance energy transfer) between Europium (Eu)-labeled anti-GST antibody and streptavidin-conjugated Allophycocyanin (APC).
Test is performed in black flat-bottom 384-well plates (Costar) in a total volume of […] containing:90 nM biotinylate peptide, 160 ng/ml GST-MDM2, 20 nM streptavidin-APC (PerkinElmerWallac), 2 nM Eu-labeled anti-GST-antibody (PerkinElmerWallac), 0.2% bovine serum albumin (BSA), 1 mM dithiothreitol (DTT) and 20 mM […] (TBS) buffer as follows: Add 10 uL of GST-MDM2 (640 ng/ml working solution) in reaction buffer to each well. Add 10 uL diluted compounds (1:5 dilution in reaction buffer) to each well, mix by shaking. Add 20 uL biotinylated p53 peptide (180 nM working solution) in reaction buffer to each well and mix on shaker. Incubate at 37° C. for 1 h. Add 20 uL streptavidin-APC and Eu-anti-GST antibody mixture (6 nM Eu-anti-GST and 60 nM streptavidin-APC working solution) in TBS buffer with 0.2% BSA, shake at room temperature for 30 minutes and read using a TRF-capable plate reader at 665 and 615 nm (Victor 5, Perkin ElmerWallac). If not specified, the reagents were purchased from Sigma Chemical Co.

Chain of recombinant GST-tagged MDM2 / p53 peptide (Q00987 whole entry): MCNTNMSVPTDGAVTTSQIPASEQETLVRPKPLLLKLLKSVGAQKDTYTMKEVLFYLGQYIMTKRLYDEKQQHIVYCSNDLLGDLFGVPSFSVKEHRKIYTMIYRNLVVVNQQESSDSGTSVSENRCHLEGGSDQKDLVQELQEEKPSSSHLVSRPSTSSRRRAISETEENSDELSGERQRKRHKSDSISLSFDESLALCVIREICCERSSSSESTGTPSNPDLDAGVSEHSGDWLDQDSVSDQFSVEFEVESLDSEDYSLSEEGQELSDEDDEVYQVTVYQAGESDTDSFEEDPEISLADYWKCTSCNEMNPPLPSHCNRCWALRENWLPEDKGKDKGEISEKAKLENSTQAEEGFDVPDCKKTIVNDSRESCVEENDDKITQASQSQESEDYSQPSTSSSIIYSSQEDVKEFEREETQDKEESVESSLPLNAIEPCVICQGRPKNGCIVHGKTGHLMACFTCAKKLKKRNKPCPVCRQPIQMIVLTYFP

IC50 [nM]	Structure (SMILES)
800	CCOc1cc(C(F)(F)F)ccc1C1=NC(c2ccc(Cl)cc2)C(c2ccc(Cl)cc2)N1C(=O)N1CCC(n2c(=O)[nH]c3ccccc32)CC1 (centres unmarked) [Example 26, 1-{1-[4,5-Bis-(4-chloro-phenyl)-2-(2-ethoxy-4-trifluoromethyl-phenyl)-4,5-dihydro-imidazole-1-carbonyl]-piperidin-4-yl}-1,3-dihydro-benzoimidazol-2-one]
4260	CCOc1cc(C(F)(F)F)ccc1C1=NC(c2ccc(Cl)cc2)C(c2ccc(Cl)cc2)N1C(=O)N(C)c1ccccn1 (centres unmarked) [Example 36, 4,5-Bis-(4-chloro-phenyl)-2-(2-ethoxy-4-trifluoromethyl-phenyl)-4,5-dihydro-imidazole-1-carboxylic acid methyl-pyridin-2-yl-amide]
21	CCOc1cc(C(F)(F)F)ccc1C1=NC(c2ccc(Cl)cc2)C(c2ccc(Cl)cc2)N1C(=O)N1CCC(NCC(=O)N(C)CCC#N)CC1 (centres unmarked) [Example 176, 2-{1-[4,5-Bis-(4-chloro-phenyl)-2-(2-ethoxy-4-trifluoromethyl-phenyl)-4,5-dihydro-imidazole-1-carbonyl]-piperidin-4-ylamino}-N-(2-cyano-ethyl)-N-methyl-acetamide]

More lines, now with the values behind:

Structure (SMILES)	IC50 [nM]
CCOc1cc(C(F)(F)F)ccc1C1=NC(c2ccc(Cl)cc2)C(c2ccc(Cl)cc2)N1C(=O)N1CCN(S(=O)(=O)C(C)C)CC1 (centres unmarked) [Example 6, [4,5-Bis-(4-chloro-phenyl)-2-(2-ethoxy-4-trifluoromethyl-phenyl)-4,5-dihydro-imidazol-1-yl]-[4-(propane-2-sulfonyl)-piperazin-1-yl]-methanone]	100
CCOc1cc(C(F)(F)F)ccc1C1=NC(c2ccc(Cl)cc2)C(c2ccc(Cl)cc2)N1C(=O)N1CCC(C(=O)OC)CC1 (centres unmarked) [Example 16, 1-[4,5-Bis-(4-chloro-phenyl)-2-(2-ethoxy-4-trifluoromethyl-phenyl)-4,5-dihydro-imidazole-1-carbonyl]-piperidine-4-carboxylic acid methyl ester]	1740

From patent US7425638B2, “Cis-imidazolines” (Hoffmann-La Roche Inc., priority 2003, dated 2008)
